For data set [1] the following is noted: Liquid.
Data set [2] can be described thus: mn = molality of the nth substance listed, in mol/kg. Particulars: Liquid, m2 = 0.

“And” between values parts separate entries of the source, which are not always exact repeats. Identical values can stand only once. Numbers after ± are expanded uncertainties.

Usually mass density stands for the mass of a sample divided by its volume. The term speed of sound denotes the propagation velocity of pressure waves in the medium. As to `CO` [methanol], the mass density in data set [1] (283.15 K) is 800.575 ± 0.31 kg/m3 [middle of 4 runs]; in data set [1] (288.15 K) it was 795.888 ± 0.31 kg/m3 [middle of 4 runs]; in data set [1] (293.15 K) it was 791.194 ± 0.32 kg/m3 and 791.243 ± 0.3 kg/m3 and 791.184 ± 0.3 kg/m3; in data set [1] (298.15 K), 786.534 ± 0.31 kg/m3 and 786.475 ± 0.31 kg/m3 and 786.485 ± 0.32 kg/m3; in data set [1] (303.15 K), 781.758 ± 0.33 kg/m3 [middle of 4 runs]; in data set [1] (308.15 K), 777.058 ± 0.32 kg/m3 and 776.997 ± 0.32 kg/m3 and 777.007 ± 0.33 kg/m3. In data set [1] (313.15 K), the mass density is 772.28 ± 0.32 kg/m3 and 772.219 ± 0.32 kg/m3 and 772.229 ± 0.33 kg/m3. Besides, the speed of sound in data set [1] (298.15 K, 101.33 kPa, Pulse-echo method) turned out to be 1102.4 ± 0.91 m/s.

`CO` [methanol] + [Br-].[Na+]: the mass density is recorded as 800.625 ± 0.29 kg/m3 in data set [2] (283.15 K); 795.934 ± 0.3 kg/m3 in data set [2] (288.15 K); 791.243 ± 0.3 kg/m3 in data set [2] (293.15 K); 786.534 ± 0.31 kg/m3 in data set [2] (298.15 K); 781.808 ± 0.31 kg/m3 in data set [2] (303.15 K); 777.058 ± 0.32 kg/m3 in data set [2] (308.15 K). Further, the mass density in data set [2] (313.15 K) amounted to 772.28 ± 0.32 kg/m3.

As to `CO` [methanol] + [Br-].c1ccc([P+](c2ccccc2)(c2ccccc2)c2ccccc2)cc1, the mass density in data set [2] (283.15 K) is 800.567 ± 0.32 kg/m3; in data set [2] (288.15 K) it was 795.88 ± 0.33 kg/m3; in data set [2] (293.15 K) it was 791.184 ± 0.33 kg/m3; in data set [2] (298.15 K), 786.475 ± 0.34 kg/m3; in data set [2] (303.15 K), 781.748 ± 0.34 kg/m3; in data set [2] (308.15 K), 776.997 ± 0.34 kg/m3. Besides, the mass density in data set [2] (313.15 K) came out at 772.219 ± 0.35 kg/m3.

Take `CO` [methanol] + [Na+].[O-][Cl+3]([O-])([O-])[O-]: the mass density is given as 800.568 ± 0.29 kg/m3 in data set [2] (283.15 K); 795.879 ± 0.3 kg/m3 in data set [2] (288.15 K); 791.184 ± 0.3 kg/m3 in data set [2] (293.15 K); 786.475 ± 0.31 kg/m3 in data set [2] (298.15 K); 781.746 ± 0.31 kg/m3 in data set [2] (303.15 K); 776.997 ± 0.32 kg/m3 in data set [2] (308.15 K). The mass density in data set [2] (313.15 K) stood at 772.219 ± 0.32 kg/m3.

As to `CO` [methanol] + [Na+].c1ccc([B-](c2ccccc2)(c2ccccc2)c2ccccc2)cc1, the mass density in data set [2] (283.15 K) worked out at 800.575 ± 0.31 kg/m3; in data set [2] (288.15 K) it was 795.888 ± 0.31 kg/m3; in data set [2] (293.15 K) it was 791.194 ± 0.32 kg/m3; in data set [2] (298.15 K), 786.485 ± 0.32 kg/m3; in data set [2] (303.15 K), 781.758 ± 0.33 kg/m3; in data set [2] (308.15 K), 777.007 ± 0.33 kg/m3. Moreover, the mass density in data set [2] (313.15 K) is given as 772.229 ± 0.33 kg/m3.
